Patent publication US20200165194A1, “ADDITIVE COMPOSITION FOR CULTURE MEDIUM, ADDITIVE COMPOUND FOR CULTURE MEDIUM, AND METHOD FOR CULTURE OF CELLS OR TISSUE USING SAME” (NISSAN CHEMICAL CORPORATION, priority 2017, published 2020)
Where two headings read alike, the source gives them in different places.

Legend:
[1] = test system: Bone marrow-derived human mesenchymal stem cells (BM-hMSC); test: Human mesenchymal stem cell-2: 3D, EZSPHERE and 2D culture, ATP assay (Experimental Example 10); assay type: cell-based; settings: for viability at 1 µM / viability at 5 µM / viability at 10 µM / viability at 20 µM: Homo sapiens, Mesenchymal stem cells, 96 h, BM-hMSC, 4 days, non-addition = 100%, read-out: relative value of RLU (number of viable cells)
Procedure: Bone marrow-derived human mesenchymal stem cells (BM-hMSC, manufactured by PromoCell) were precultured by a single layer culture method (2D) using a mesenchymal stem cell proliferation medium (manufactured by PromoCell). In three-dimensional culture method (3D), hMSC was suspended in a medium composition added with deacylated gellan gum, and seeded in a […] flat bottom Ultr-low Attachment surface plate (manufactured by Corning Incorporated, #3474) at 6000 cells/90 μL/well. In the three-dimensional culture method using EZSPHERE (EZSPHERE), hMSC was suspended in a deacylated gellan gum-free medium composition, and seeded in a 96-well EZSPHERE plate (manufactured by AGC TECHNO GLASS CO., LTD., #4860-900) at 2000 cells/90 μL/well. In 2D, hMSC was suspended in a deacylated gellan gum-free medium composition, and seeded in a 96-well flat bottom plate (manufactured by Corning Incorporated, #3585) at 2000 cells/90 μL/well. […] As a control, DMSO was added at a final concentration of 0.1%.

[2] = test system: Chinese hamster ovary-derived cell line CHO-K1; test: Animal cell lines, 3D culture, ATP assay (Experimental Example 15); assay type: cell-based; settings: Cricetulus griseus, CHO-K1, 96 h, CHO-K1, 4 days, read-out: number of viable cells (RLU), relative value to control (100%)
Source text: (§1) Various animal cell lines were precultured (single layer culture) as follows in respective media. Chinese hamster ovary-derived cell line CHO-K1 (manufactured by DS PHARMA BIO MEDICAL, 10% fetal bovine serum (FBS, manufactured by Corning)-containing Ham's F-12 medium (manufactured by Fujifilm Wako Pure Chemical Corporation)), Cercopithecus aethiops kidney epithelium-derived cell line Vero (purchased from JCRB cell bank, 5% FBS-containing Medium 199 medium (manufactured by Life Technologies)). The above-mentioned cells in the logarithmic growth phase were washed with PBS, a 0.25 w/v % trypsin-1 mmol/L EDTA (ethylenediaminetetraacetic acid) solution (manufactured by Fujifilm Wako Pure Chemical Corporation) was added, and adherent cells were detached by incubating at 37° C. for 3 min. Each medium was added and the mixture was centrifuged and resuspended in the same medium.
(§2) The aforementioned various animal cells were suspended in respective deacylated gellan gum-containing or not containing media (deacylated gellan gum concentration was 0.02 w/v % in Ham's F-12 medium, 0.015 w/v % in Medium 199 medium), and seeded in a 96 well low attachment U-bottom plate (manufactured by Corning, #4520, deacylated gellan gum-free medium), or a low attachment flat bottom plate (manufactured by Corning, #3474, deacylated gellan gum-containing medium) at a cell concentration of 700-2000 cells/90 μL/well (all 3D culture). […] The amount of each compound solution to be added was […]. As a control, a DMSO solution dissolved in a medium was added (DMSO final concentration 0.1%). […] When compared with the compound non-addition (control), one showing a value of not more than 119% as -, one showing a value of not less than 120% as ◯, and one showing a value of not less than 150% as ⊚ are shown in the twenty-third table and the twenty-fourth table.

[3] = test system: Cercopithecus aethiops kidney epithelium-derived cell line Vero; test: as above; assay type: cell-based; settings: 4 days
Source text: as §1, §2

[4] = test system: human ovarian cancer cell line SKOV3; test: Action on SKOV3 cell-2: 3D (deacylated gellan gum) and 2D culture, EGF medium, ATP assay (Experimental Example 3); settings: for viability at 1 µM / viability at 5 µM / viability at 10 µM / viability at 20 µM: Homo sapiens, SK-OV-3, 96 h, 4 days, compound non-addition = 100%
[5] = test system: plural animal cell lines; test: Animal cell lines, summary over the cell lines (Experimental Example 15); assay type: cell-based; settings: animal cell lines under three-dimensional conditions
Source text: as §1, §2

[6] = test system: Human umbilical vein endothelial cells; test: Vascular endothelial cell, 3D culture, ATP assay (Experimental Example 14); assay type: cell-based; settings: human umbilical vein endothelial cells under three-dimensional conditions
Procedure: Human umbilical vein endothelial cells (manufactured by PromoCell) were precultured in Endothelial Cell proliferation Medium (manufactured by PromoCell) medium (single layer culture). The above-mentioned cells in the logarithmic growth phase were washed with PBS, DetachKit (manufactured by PromoCell) was added, and adherent cells were detached by incubating at 37° C. for 3 min. The medium was added and the mixture was centrifuged and resuspended in the same medium.
The aforementioned cells were suspended in respective deacylated gellan gum-containing or not containing media (deacylated gellan gum concentration was 0.015 w/v %), and seeded in a 96 well low attachment U-bottom plate (manufactured by Corning, #4520, deacylated gellan gum-free medium), or a low attachment flat bottom plate (manufactured by Corning, #3474, deacylated gellan gum-containing medium) at a cell concentration of 700-2000 cells/90 μL/well (all 3D culture). […] The amount of each compound solution to be added was 10 μL/well. As a control, a DMSO solution dissolved in a medium was added (DMSO final concentration 0.1%).

[7] = low attachment flat bottom plate (deacylated gellan gum-containing medium)
[8] = read-out: relative value of RLU (number of viable cells), 2D single layer culture
[9] = read-out: relative value of RLU (number of viable cells), 3D culture (deacylated gellan gum)

Compound: CC/C(=N\NC(=O)C(C)Nc1ccccc1)c1ccc(O)c(C)c1O (stereo not shown) [k-1:B-1]
- viability at 1 µM ([1]; 2D): 109%
- viability at 5 µM ([1]; 2D): 125%
- viability at 10 µM ([1]; 2D): 158%
- viability at 20 µM ([1]; 2D): 164%
- viability at 1 µM ([1]; 3D (deacylated gellan gum)): 139%
- viability at 5 µM ([1]; 3D (deacylated gellan gum)): 298%
- viability at 10 µM ([1]; 3D (deacylated gellan gum)): 418%
- viability at 20 µM ([1]; 3D (deacylated gellan gum)): 420%
- viability at 1 µM ([1]; EZSPHERE plate): 154%
- viability at 5 µM ([1]; EZSPHERE plate): 247%
- viability at 10 µM ([1]; EZSPHERE plate): 297%
- viability at 20 µM ([1]; EZSPHERE plate): 278%
- proliferation activity (in words) ([1]; three-dimensional cell culture conditions): promoted proliferation activity of BM-hMSC
- proliferation activity (in words) ([1]; two-dimensional cell culture conditions): promoted proliferation activity of hMSC
- viability at 5 µM ([2]; low attachment U-bottom plate): < 119%
- viability at 10 µM ([2]; low attachment U-bottom plate): < 119%
- viability at 5 µM [2, 7]: 120 to 150%
- viability at 10 µM [2, 7]: < 119%
- number of viable cells (RLU), relative value to control (100%) ([3]; low attachment U-bottom plate, 5 μM): ⊙
- number of viable cells (RLU), relative value to control (100%) ([3]; low attachment U-bottom plate, 10 μM): ⊙
- number of viable cells (RLU), relative value to control (100%) ([3]; low attachment flat bottom plate (deacylated gellan gum-containing medium), 5 μM): ⊙
- number of viable cells (RLU), relative value to control (100%) ([3]; low attachment flat bottom plate (deacylated gellan gum-containing medium), 10 μM): ⊙
- viability at 1 µM [4, 8]: 95%
- viability at 5 µM [4, 8]: 99%
- viability at 10 µM [4, 8]: 97%
- viability at 20 µM [4, 8]: 74%
- viability at 1 µM [4, 9]: 127%
- viability at 5 µM [4, 9]: 181%
- viability at 10 µM [4, 9]: 177%
- viability at 20 µM [4, 9]: 158%
- cell proliferation promoting effect (in words) ([4]; single layer culture (2D) of SKOV3 cells): a favorable cell proliferation promoting effect was not observed
- cell proliferation promoting effect (in words) ([4]; three-dimensional culture (3D) of SKOV3 cells): exhibited cell proliferation promoting effect at a wide concentration range
- proliferation activity (in words) [5]: promoted proliferation activity in plural animal cell lines
- proliferation activity (in words) [6]: promoted proliferation activity in human umbilical vein endothelial cells
